Assay results taken from ChEMBL document CHEMBL5143707, “Benzodiazepine Derivatives as Potent Vasopressin V2 Receptor Antagonists for the Treatment of Autosomal Dominant Kidney Disease” (J Med Chem, 2022).

Assays:
in vivo [1] = details: C57BL/6, mouse, kidney, sc, 5 mg/kg
in vivo [2] = details: C57BL/6, mouse, kidney, sc, 5 mg/kg; remark: listed apart in the source

- concentration at 0.5 h (in vivo [1]): 6100 ng/g
- concentration at 1 h (in vivo [2]): 3900 ng/g
SMILES: Cc1ccccc1C(=O)Nc1ccc(C(=O)N2CCCC(O)c3cc(Cl)ccc32)c(C)c1 (configuration not stated) [TOLVAPTAN]
